This passage reports refractive index results from the NIST ThermoML archive (doi:10.1021/acs.jced.5b01102).

Numbers after ± are expanded uncertainties.

This data set in a line: refractive index (Na D-line) (dimensionless). To be noted: 298.15 K; 101.33 kPa; Liquid; Standard Abbe refractometry.
In the case of `O` [water], the refractive index came out at 1.33251 ± 0.00031. Consider `CO` [methanol], for which the refractive index stood at 1.32655 ± 0.00031. On to `CCO` [ethanol], for which the refractive index is on record as 1.35947 ± 0.00033.

As a reminder, the refractive index is a measure of how strongly the sample bends light.
